# Reference: publication PMC9227013, “Synthesis, Anticancer Potential and Comprehensive Toxicity Studies of Novel Brominated Derivatives of Bacterial Biopigment Prodigiosin from Serratia marcescens ATCC 27117” (Molecules, 2022)
# Like-named read-outs stand apart in the source and are kept apart here.
# Assays:
# WI-38-40 (fibroblasts) = test system: WI-38-40 (fibroblasts); parameters: method as in printed; details: WI-38-40, 72 h exposure; literature, ref not given; cited from earlier work
# [1] = test system: HBL-100 (breast epithelial cells); parameters: method as in printed; details: HBL-100, 72 h exposure; literature, ref not given; cited from earlier work
# breast cancer cell lines = test system: breast cancer cell lines; parameters: method as in printed; details: breast cancer cells, 72 h exposure; literature, ref not given; cited from earlier work
# MRC-5 (lung fibroblasts) = assay: MTT antiproliferative assay on MRC-5 cells; type: cell-based; details: for IC50: Homo sapiens
# Description: (§1) Selected cell lines MRC-5 (lung fibroblasts), A549 (lung cancer), A375 (melanoma, skin cancer), MDA-MB-231 (breast cancer), and HCT116 (colon cancer) were obtained from ATCC, Manassas, US. Antiproliferative activities of PG and its Br derivatives were measured using the standard colorimetric MTT [3-(4,5-dimethylthiazol-2-yl)-2,5-diphenyltetrazolium bromide] assay. Briefly, cells were plated in a 96-well flat-bottom plate (Sarstedt, Nümbrecht, Germany) at a concentration of 1 × 10^4 cells per well, grown in a humidified atmosphere of 95% air and 5% CO2 at 37 °C, and maintained as monolayer cultures in RPMI 1640 medium supplemented with 10% fetal bovine serum (FBS), 100 U/mL penicillin, and 100 μg/mL streptomycin (all media components from Gibco™ by Thermo Fischer Scientific CE). Each tested compound was added to the cells at a concentration of 0.05–100.00 μg/mL, and the treatment lasted for 48 h. The MTT assay was performed two times in four replicates, and the results were presented as a percentage of the DMSO-treated control that was arbitrarily set to 100%. Plates were read using the Tecan Infinite 200 Pro multiplate reader (Tecan Group Ltd., Männendorf, Switzerland).
# (§2) To assess the effect of the treatment duration, exposure of MRC-5 and HCT116 cells to PG and its Br derivatives was observed after 24 h, 48 h, and 72 h and measured using the MTT assay, as described above. MRC-5 and HCT-116 cells treated for 24 h were additionally analyzed using DM IL LED Inverted Microscope (Leica Microsystems, Mannheim, Germany) at 20× magnification.
# A549 (lung cancer) = assay: MTT antiproliferative assay on A549 cells; type: cell-based; details: Homo sapiens
# Description: as §1
# [2] = test system: A375 (melanoma, skin cancer); assay: MTT antiproliferative assay on A375 cells; type: cell-based; details: Homo sapiens
# Description: as §1
# [3] = test system: MDA-MB-231 (breast cancer); assay: MTT antiproliferative assay on MDA-MB-231 cells; type: cell-based; details: for IC50: Homo sapiens
# Description: as §1
# HCT116 (colon cancer) = assay: MTT antiproliferative assay on HCT116 cells; type: cell-based; details: for IC50: Homo sapiens
# Description: as §1, §2
# MRC-5 cells = assay: Annexin V flow cytometry, early apoptosis; type: cell-based; details: MRC-5, compound at IC50 concentration, 24 h
# Description: The eBioscience^TM Annexin V Apoptosis Detection Kit APC (Invitrogen by Thermo Fischer Scientific, Waltham, MA, USA) was used for the assessment of cellular integrity and the externalization of phosphatidylserine. MRC-5 cells were plated in a 6-well flat-bottom plate at a concentration of 2.5 × 10^5 cells per well, grown for 24 h in a humidified atmosphere of 95% air and 5% CO2 at 37 °C in RPMI 1640 medium supplemented with 10% fetal bovine serum (FBS), 100 U/mL penicillin, and 100 μg/mL streptomycin (Gibco™ by Thermo Fischer Scientific CE, Waltham, MA, USA). Each tested compound was added to the cells at IC50 concentration, and the incubation continued for another 24 h under the same conditions. Upon incubation, cells were collected, washed once with Dulbecco’s Phosphate-Buffered Saline (Gibco™ by Thermo Fischer Scientific CE, Waltham, MA, USA), and stained with Annexin V FITC and propidium iodide (PI) under the manufacturer’s instructions. Briefly, MRC-5 cells were resuspended in 1 × Binding Buffer at 1–5 × 10^6 cells per mL and incubated with 5.00 µL Annexin V FITC for 15 min at room temperature in a final volume of 100 μL. […] Immediately after staining, cells were analyzed using a CyFlow Space Partec flow cytometer, with Partec FloMax software (Partec GmbH, Münster, Germany).
# [4] = test system: Caenorhabditis elegans AU37; assay: Roundworm (C. elegans) survival assay; type: in vivo; details: for Survival rate: 48 h
# Description: Nematode roundworms (Caenorhabditis elegans AU37) were obtained from the Caenorhabditis Genetics Center (CGC), University of Minnesota, Minneapolis, Minnesota, US. C. elegans AU37 (glp-4; sek-1) was propagated under standard conditions, synchronized by hypochlorite bleaching, and cultured on nematode growth medium using E. coli OP50 as a food source, as described previously. The C. elegans survival assay was carried out following the standard procedure with some modifications. Briefly, synchronized worms (L4 stage) were suspended in a medium containing 95% M9 buffer (3.0 g of KH2PO4, 6.0 g of Na2HPO4, 5.0 g of NaCl, and 1 mL of 1 M MgSO4∙7H2O in 1 L of water), 5% LB broth, and 10 μg/mL of cholesterol (Sigma-Aldrich, Munich, Germany). The experiment was carried out in 96-well flat-bottomed microtiter plates (Sarstedt, Nümbrecht, Germany) in the final volume of 100 μL per well. 25 μL of this suspension of nematodes (25–35 nematodes) were transferred to the wells of a 96-well microtiter plate, where 50 μL of the medium was previously added. Next, 25 μL of the solvent control (1% DMSO) or 25 μL of the concentrated tested compound solution was added to the test wells. Final concentrations of the compounds were 50.00, 25.00, 12.50, 6.25, 3.13, and 1.57 µg/mL. Subsequently, the plates were incubated at 25 °C for 2 days. The fraction of dead worms was determined after 48 h by counting the number of dead worms and the total number of worms in each well, using a Carl Zeiss™ Stemi 508 Stereomicroscope (Zeiss Group, Jena, Germany) at 40× magnification. The compounds were tested three times in each assay and each assay was repeated two times (n = 6). As a negative control experiment, nematodes were exposed to the medium containing 1% DMSO.
# [5] = test system: zebrafish (Danio rerio) embryos; assay: Zebrafish (D. rerio) embryotoxicity; type: in vivo; details: for death rate: 10 µg/mL applied at 6 hpf
# Description: Wild-type zebrafish (Danio rerio) strain was obtained from the commercial supplier Pet Center, Belgrade, Serbia. Zebrafish embryotoxicity assay was performed according to general rules of the OECD Guidelines for the testing of chemicals. The wild-type zebrafish (D. rerio) strain was kept under controlled environmental conditions (water temperature 28 °C, 14 h under the light and 10 h in the dark) and fed regularly three times a day with commercially dry flake food supplemented with Artemia nauplii (TetraMinTM flakes; Tetra Melle, Germany). Zebrafish embryos were produced by female and male adults mating in the ratio of 1:2. Obtained embryos were collected and washed from detritus and carefully handled. Only fertilized embryos were selected and distributed into 24-well plates (Sarstedt, Germany) containing 10 embryos per well. Each well contained exactly 1 mL of water for embryos (0.2 g/L of Instant Ocean® Salt in distilled water). For assessing lethal and developmental toxicity, embryos at the 6 and 20 h postfertilization (hpf) stages were treated with selected compounds at concentrations of 0.1–100 μg/mL (maximum DMSO concentration in the negative control was 1%) and incubated at 28 °C. Experiments were performed in triplicate, using 30 embryos for each concentration. For five days, the appearance of different morphophysiological parameters in embryo development was monitored, and dead embryos were counted and discarded every 24 h. On the fifth day, the embryos were anesthetized by the addition of 0.1% (w/v) tricaine solution (Sigma-Aldrich, St. Louis, Missouri, US), observed under a stereomicroscope (SMZ-143-N2GG, Motic, Germany) at 3.5× magnification, photographed, and killed by freezing at −20 °C for ≥24 h. All experiments involving zebrafish were performed in compliance with the European directive 2010/63/EU and the ethical guidelines of the Guide for Care and Use of Laboratory Animals of the Institute of Molecular Genetics and Genetic Engineering, University of Belgrade, Serbia.
# [6] = test system: A549, A375, MDA-MB-231, and HCT116 cancer cell lines; assay: MTT assay, whole cell line panel; type: cell-based; details: 48 h
# Description: as §1
# A549 = details: cited from earlier work
# melanoma cell line A375 = test system: melanoma cell line A375; parameters: method as in PMID 16736886; details: cited from earlier work
# Breast cancer MDA-MB-231 = details: cited from earlier work
# HCT116 colon cancer = test system: HCT116 colon cancer; parameters: method as in PMID 24247721; details: HCT116, 72 h treatment; cited from earlier work
# [7] = test system: HFF (human foreskin fibroblasts) cells; parameters: method as in PMID 24247721; details: cited from earlier work
# [8] = test system: C. elegans first stage juveniles; details: cited from earlier work
# [9] = test system: juvenile Meloidogyne incognita J2; parameters: method as in doi:10.3390/agronomy12010041; details: cited from earlier work
# Heterodera schachtii J2 = details: cited from earlier work
# [10] = test system: 60-cell-line panel of the National Cancer Institute (NCI); details: NCI 60-cell-line panel; cited from earlier work
# C. elegans = details: PG obtained from S. marcescens; cited from earlier work
# [11] = test system: juveniles of Radopholus similis; details: cited from earlier work
# Meloidogyne javanica = details: cited from earlier work
compound,measurement,setting,value
cycloprodigiosin [cPG],dose for growth inhibition,WI-38-40 (fibroblasts),0.73 µg/mL
same,dose for growth inhibition,[1],0.57 µg/mL
same,IC50,breast cancer cell lines,0.15 to 0.20 µg/mL
"CCCCCC1=CC(=Cc2[nH]c(-c3ccc[nH]3)cc2OC)N=C1C [PG, 4-Methoxy-5-[(5-methyl-4-pentyl-2H-pyrrol-2-ylidene)methyl]-1H,1'H-2,2'-bipyrrole]",IC50,"MRC-5 (lung fibroblasts); MRC5, 24 h",1.8 ± 0.04 µg/mL
same,IC50,"MRC-5 (lung fibroblasts); MRC5, 48 h",1.2 ± 0.04 µg/mL
same,IC50,"MRC-5 (lung fibroblasts); MRC5, 72 h",0.7 ± 0.02 µg/mL
same,fold lower IC50 of 72 h in comparison to 24 h exposure,MRC-5 (lung fibroblasts); MRC-5,2.5 fold
same,IC50,"A549 (lung cancer); A549, 48 h",1.3 ± 0.02 µg/mL
same,IC50,"[2]; A-375, 48 h",1.25 ± 0.04 µg/mL
same,IC50,"[3]; MDA-MB-231, 48 h",0.62 ± 0.01 µg/mL
same,selectivity between healthy and cancer cell lines,"[3]; MRC-5 vs breast cancer cells (MDA-MB-231), 48 h",1.9
same,IC50,"HCT116 (colon cancer); HCT-116, 24 h",5 ± 0.06 µg/mL
same,IC50,"HCT116 (colon cancer); HCT-116, 48 h",0.7 ± 0.02 µg/mL
same,IC50,"HCT116 (colon cancer); HCT-116, 72 h",0.8 ± 0.02 µg/mL
same,selectivity between healthy and cancer cell lines,"HCT116 (colon cancer); MRC-5 vs colon cancer cells (HCT116), 48 h",1.7
same,Annexin V Positive Cells,MRC-5 cells,20.3 ± 0.5%
same,Survival rate,[4]; 1.57 µg/mL,100 ± 0.00%
same,Survival rate,[4]; 3.13 µg/mL,100 ± 0.00%
same,Survival rate,[4]; 6.25 µg/mL,100 ± 0.00%
same,Survival rate,[4]; 12.50 µg/mL,100 ± 0.00%
same,Survival rate,[4]; 25.00 µg/mL,100 ± 0.00%
same,Survival rate,[4]; 50.00 µg/mL,100 ± 0.00%
same,death rate,[5],100%
same,effect on embryos,"[5]; 2.5 and 0.1 µg/mL, both at 6 hpf and 20 hpf","all the embryos survived, but developed into slightly smaller fish with microcephaly"
same,IC50,[6]; read-out: IC50 values range over the tested cancer cell lines,0.62 to 1.3 µg/mL
same,anticancer activity against A549 (lower end of literature range),A549,0.03 µg/mL
same,anticancer activity against A549 (upper end of literature range),A549,3.23 µg/mL
same,sensitivity of A375 to PG,melanoma cell line A375,0.70 µg/mL
same,sensitivity of MDA-MB-231 to PG (lower end of literature range),Breast cancer MDA-MB-231,0.02 µg/mL
same,sensitivity of MDA-MB-231 to PG (upper end of literature range),Breast cancer MDA-MB-231,0.68 µg/mL
same,IC50,HCT116 colon cancer,0.04 µg/mL
same,growth inhibition,[7]; 0.36 µg/mL PG,76.16%
same,IC50,[7]; 72 h of treatment,0.15 µg/mL
same,EC50,[8],0.04 µg/mL
same,IC50,[9],200 µg/mL
same,Effectiveness,Heterodera schachtii J2,4.30 µg/mL
same,average LC50,[10],0.68 µg/mL
same,toxicological assessment,C. elegans,no significant toxic activity
same,LC50,[11],83 µg/mL
same,LC50,Meloidogyne javanica,79 µg/mL
CCCCCC1=C(Br)/C(=C/c2[nH]c(-c3[nH]ccc3Br)cc2OC)N=C1C [PG-Br2],IC50,"MRC-5 (lung fibroblasts); MRC5, MRC-5, 48 h treatment, read-out: IC50",10 ± 0.09 µg/mL
same,IC50,"MRC-5 (lung fibroblasts); MRC5, MRC-5, exposure time 24 h, read-out: IC50",15 ± 0.05 µg/mL
same,IC50,"MRC-5 (lung fibroblasts); MRC5, MRC-5, exposure time 72 h, read-out: IC50",10 ± 0.08 µg/mL
same,IC50,"A549 (lung cancer); A549, 48 h treatment, read-out: IC50",16 ± 0.08 µg/mL
same,IC50,"[2]; A-375, A375, 48 h treatment, read-out: IC50",12 ± 0.04 µg/mL
same,IC50,"[3]; MDA-MB-231, 48 h treatment, read-out: IC50",17 ± 0.05 µg/mL
same,IC50,"HCT116 (colon cancer); HCT-116, HCT116, 48 h treatment, read-out: IC50",10 ± 0.08 µg/mL
same,IC50,"HCT116 (colon cancer); HCT-116, HCT116, exposure time 24 h, read-out: IC50",50 ± 0.09 µg/mL
same,IC50,"HCT116 (colon cancer); HCT-116, HCT116, exposure time 72 h, read-out: IC50",10 ± 0.05 µg/mL
same,Annexin V Positive Cells,MRC-5 cells,19.6 ± 0.6%
same,Survival rate,[4]; 1.57 µg/mL,100 ± 0.00%
same,Survival rate,[4]; 3.13 µg/mL,100 ± 0.00%
same,Survival rate,[4]; 6.25 µg/mL,100 ± 0.00%
same,Survival rate,[4]; 12.50 µg/mL,100 ± 0.00%
same,Survival rate,[4]; 25.00 µg/mL,100 ± 0.00%
same,Survival rate,[4]; 50.00 µg/mL,100 ± 0.00%
same,motility of nematodes,[4]; all tested concentrations,significantly impaired
same,death rate,[5],0%
same,embryos survival rate,"[5]; 20 µg/mL, 6 hpf and 20 hpf",100%
same,teratogenic effects,"[5]; 20 µg/mL, 6 hpf and 20 hpf",without any teratogenic effects
same,effect on embryos,"[5]; 50–70 µg/mL, application at 6 hpf",severe toxicity and abnormal development
same,lower cytotoxicity in comparison to PG,[6]; human,8-27 fold
